The subject of one assay is HCT-116. Description: Antiproliferative activity against human HCT116 cells after 72 hrs by phosphatase assay. In kind it is functional, cell-based. The following applies: HCT-116, 72 h.
Assay [1] can be described thus: Cytotoxicity against human HCT116/VM46 cells assessed as reduction in cell viability after 72 hrs by phosphatase assay. In kind it is cell-based. The conditions noted are these: HCT-116/VM46, 72 h.
In the next assay the test system is L1210. Description: Antiproliferative activity against mouse L1210 cells after 72 hrs by phosphatase assay. In kind it is functional, cell-based. The following applies: L1210, 72 h.

For `CC[C@]1(NC(=O)c2ccc3c(c2)CCCC3)C[C@H]2CN(CCc3c([nH]c4ccc(F)cc34)[C@@](C(=O)OC)(c3cc4c(cc3OC)N(C)[C@H]3[C@@](O)(C(=O)OC)[C@H](OC(C)=O)[C@]5(CC)C=CCN6CC[C@]43[C@@H]65)C2)C1`, the results for the IC50 (with HCT-116; in assay [1]; with L1210) were 6.2 nM, 19 nM and 5 nM, respectively.
In the same order, the values of `CC[C@]1(NC(=O)c2cc(C)cc(C)c2)C[C@H]2CN(CCc3c([nH]c4ccccc34)[C@@](C(=O)OC)(c3cc4c(cc3OC)N(C)[C@H]3[C@@](O)(C(=O)OC)[C@H](OC(C)=O)[C@]5(CC)C=CCN6CC[C@]43[C@@H]65)C2)C1` are 6 nM, 9.2 nM and 5.4 nM.
For `CC[C@]1(NC(=O)c2ccc3occc3c2)C[C@H]2CN(CCc3c([nH]c4ccccc34)[C@@](C(=O)OC)(c3cc4c(cc3OC)N(C)[C@H]3[C@@](O)(C(=O)OC)[C@H](OC(C)=O)[C@]5(CC)C=CCN6CC[C@]43[C@@H]65)C2)C1` the same measures were 3.8 nM, 25 nM and 5 nM.
In the case of `CC[C@]1(NC(=O)/C=C/c2ccoc2)C[C@H]2CN(CCc3c([nH]c4ccccc34)[C@@](C(=O)OC)(c3cc4c(cc3OC)N(C)[C@H]3[C@@](O)(C(=O)OC)[C@H](OC(C)=O)[C@]5(CC)C=CCN6CC[C@]43[C@@H]65)C2)C1`, the results for the half-inhibitory concentration (IC50) (with HCT-116; in assay [1]; in the assay with L1210) were 0.7 nM, 20 nM and 0.7 nM, respectively.
As to `CC[C@]1(NC(=O)c2ccc(C)cc2)C[C@H]2CN(CCc3c([nH]c4ccccc34)[C@@](C(=O)OC)(c3cc4c(cc3OC)N(C)[C@H]3[C@@](O)(C(=O)OC)[C@H](OC(C)=O)[C@]5(CC)C=CCN6CC[C@]43[C@@H]65)C2)C1`, the IC50 in the assay with HCT-116 is 0.45 nM; in assay [1] it was 4.5 nM; in the assay with L1210, 0.5 nM.
In the same order, the values of `CC[C@]1(NC(=O)c2ccc(C(F)(F)F)cc2)C[C@H]2CN(CCc3c([nH]c4ccccc34)[C@@](C(=O)OC)(c3cc4c(cc3OC)N(C)[C@H]3[C@@](O)(C(=O)OC)[C@H](OC(C)=O)[C@]5(CC)C=CCN6CC[C@]43[C@@H]65)C2)C1` are 3.3 nM, 55 nM and 4.3 nM.
Regarding `CC[C@]1(NS(=O)(=O)c2c(C)cc(C)cc2C)C[C@H]2CN(CCc3c([nH]c4ccccc34)[C@@](C(=O)OC)(c3cc4c(cc3OC)N(C)[C@H]3[C@@](O)(C(=O)OC)[C@H](OC(C)=O)[C@]5(CC)C=CCN6CC[C@]43[C@@H]65)C2)C1`, the 50% inhibitory concentration (IC50) in the assay with HCT-116 came out at 580 nM; in assay [1] it was 710 nM; in the assay with L1210, 500 nM.
`CC[C@]1(NC(=O)/C=C/c2cccnc2)C[C@H]2CN(CCc3c([nH]c4ccccc34)[C@@](C(=O)OC)(c3cc4c(cc3OC)N(C)[C@H]3[C@@](O)(C(=O)OC)[C@H](OC(C)=O)[C@]5(CC)C=CCN6CC[C@]43[C@@H]65)C2)C1`: the IC50 with HCT-116 was 5.7 nM; in assay [1], 320 nM; in the assay with L1210, 5.9 nM.
In the same order, the values of `CC[C@]1(NC(=O)/C=C/c2ccsc2)C[C@H]2CN(CCc3c([nH]c4ccccc34)[C@@](C(=O)OC)(c3cc4c(cc3OC)N(C)[C@H]3[C@@](O)(C(=O)OC)[C@H](OC(C)=O)[C@]5(CC)C=CCN6CC[C@]43[C@@H]65)C2)C1` are 0.6 nM, 20 nM and 0.5 nM.
As for `CC[C@]1(NC(=O)C(C)(C)C)C[C@H]2CN(CCc3c([nH]c4ccccc34)[C@@](C(=O)OC)(c3cc4c(cc3OC)N(C)[C@H]3[C@@](O)(C(=O)OC)[C@H](OC(C)=O)[C@]5(CC)C=CCN6CC[C@]43[C@@H]65)C2)C1`, the half-inhibitory concentration (IC50) in the assay on HCT-116 came out at 3600 nM; in assay [1], 4100 nM; in the assay on L1210, 2800 nM.

One may read the IC50 as the concentration at which inhibition is half-maximal.
